Series [1] deals with K. pneumoniae isolate (KP3800). As to the kind of experiment: agar MIC according to CLSI guidelines. Format: cell-based, Klebsiella pneumoniae.
Series [2] deals with E. cloacae isolate (EC3800). As to the kind of experiment: agar MIC according to CLSI guidelines. Format: cell-based, Enterobacter cloacae.
For series [3] the following is noted: ref supplement refs 1-13 as given per antibiotic; cited from earlier work.
A short description of series [4]: in vitro. The note with it: Enterobacter cloacae, not told, pH 7, Avg OM permeability coefficient (nm/s) ± SD.
The subject of series [5] is polymyxin-resistant K. pneumoniae isolate KP3800. The note with it: for OM permeability coefficient, fold smaller in KP3800 compared to EC3800: KP3800 vs EC3800.
For series [6] the following is noted: critically ill patients; ref supplement refs 1-13 as given per antibiotic; cited from earlier work.
The subject of series [7] is polymyxin-susceptible E. cloacae isolate EC3800. The settings on record: for OM permeability of imipenem, fold faster than meropenem: E. cloacae EC3800.
The conditions of series [8]: basic group carrying the positive charge; no reference given; cited from earlier work.
The subject of a further series is P. aeruginosa. The settings on record: not told; cited from earlier work.
A short description of series [9]: in vitro. The settings on record: Klebsiella pneumoniae, not told.
Series [10] can be described thus: in vitro. The note with it: Klebsiella pneumoniae, not told. This is another data set of the same source.
The test system of the next series is E. cloacae complex. The settings on record: cited from earlier work.
[11] abbreviates: Cassette E. cloacae, efflux: with 25 mg/liter PAβN, two biological replicates.
Setting [12] is: Cassette E. cloacae, three biological replicates.
The mark [13] stands for this setting: Discrete E. cloacae, three biological replicates.
The mark [14] stands for this setting: pH 7, Avg OM permeability coefficient (nm/s) ± SD, Cassette K. pneumoniae, efflux: with 25 mg/liter PAβN, two biological replicates.
Setting [15] is: pH 7, Avg OM permeability coefficient (nm/s) ± SD, Cassette K. pneumoniae, three biological replicates.
The mark [16] stands for this setting: pH 7, Avg OM permeability coefficient (nm/s) ± SD, Discrete K. pneumoniae, three biological replicates.

Values after ≈ are worked out from the molar mass of the structure shown. Where two headings read alike, the source gives them in different places. Residues, ends and D or L forms follow the SMILES beside them. *: point of attachment. βNA = c1ccc2cc(N*)ccc2c1

Take polymyxin: the MIC (as a rule, the smallest concentration in the dilution series that meets the test's criterion for growth inhibition) in series [1] (KP3800) amounted to 64 µg/mL; in series [2] (EC3800), 0.5 µg/mL.

With `C[C@@H](O)[C@H]1C(=O)N2C(C(=O)O)=C(SCCN=CN)C[C@H]12` [Imipenem, imipenem], the “Fraction bound in plasma (%)” value in series [3] is recorded as 9.1%. The values for the MIC in series [1] (Klebsiella pneumoniae) and in series [2] (Enterobacter cloacae) were 128 µg/mL (≈ 428 µM) and 4 µg/mL (≈ 13.4 µM), respectively. In addition, the Papp (usually the rate of passage across a membrane or cell layer, normalised by area and donor concentration) was 393 ×10⁻⁶ cm/s in the series “in vitro [4]” (setting [11]); 577 ×10⁻⁶ cm/s in the series “in vitro [4]” (setting [12]); 666 ×10⁻⁶ cm/s in “in vitro [4]” (setting [13]); 72.3 ± 12.4 ×10⁻⁶ cm/s in “in vitro [9]” (setting [14]); 90.7 ± 6.57 ×10⁻⁶ cm/s in the series “in vitro [9]” (setting [15]); 204 ×10⁻⁶ cm/s in “in vitro [9]” (setting [16]). In addition, the “OM permeability coefficient, fold smaller in KP3800 compared to EC3800” value in series [5] is listed as “approximately 5 fold”. In series [6], the “Mean Clearance” value is given as 12.4 L/h. Moreover, the “OM permeability of imipenem, fold faster than meropenem” value is on record as “at least 7 fold” in series [7] and approximately 7 fold in [7] (listed as imipenem). In addition, the “OM permeability of imipenem, fold faster than aztreonam” value in series [7] (EC3800) was ~2,000 fold. Further, in series [7] (EC3800), the “OM permeability of imipenem, fold faster than cefepime” value is on record as 258 fold. Moreover, the pKa2 in [8] is 10.6. For the same compound, the “OM permeability of imipenem over meropenem, fold faster” value in the series with P. aeruginosa is on record as 2.74 fold.

Take `C[C@H]1[C@H](NC(=O)/C(=N\OC(C)(C)C(=O)O)c2csc(N)n2)C(=O)N1S(=O)(=O)O` [Aztreonam, aztreonam]: the “Fraction bound in plasma (%)” value in series [3] was 51.5%. For the same compound, the Papp in the series “in vitro [9]” (setting [14]) is less than 0.3 ×10⁻⁶ cm/s; in “in vitro [9]” (setting [15]) it was less than 0.3 ×10⁻⁶ cm/s; in the series “in vitro [9]” (setting [16]) it was 0.864 ± 0.846 ×10⁻⁶ cm/s; in “in vitro [10]” it was 0.74 ×10⁻⁶ cm/s.

As for `C[C@@H](O)[C@H]1C(=O)N2C(C(=O)O)=C(S[C@@H]3CN[C@H](C(=O)N(C)C)C3)[C@H](C)[C@H]12` [Meropenem, meropenem], the MIC in series [1] (Klebsiella pneumoniae) is more than 256 µg/mL; in series [2] (Enterobacter cloacae) it was 4 µg/mL (≈ 10.4 µM). Besides, the Papp was determined as 40.2 ± 6.98 ×10⁻⁶ cm/s in the series “in vitro [4]” (setting [11]); 84.3 ± 29.2 ×10⁻⁶ cm/s in “in vitro [4]” (setting [12]); 72.9 ± 15.5 ×10⁻⁶ cm/s in “in vitro [4]” (setting [13]); 5.75 ± 2.17 ×10⁻⁶ cm/s in the series “in vitro [9]” (setting [14]); 9.07 ± 0.689 ×10⁻⁶ cm/s in “in vitro [9]” (setting [15]); 8.33 ± 0.917 ×10⁻⁶ cm/s in the series “in vitro [9]” (setting [16]). Also, the “OM permeability coefficient, fold smaller in KP3800 compared to EC3800” value in series [5] is recorded as approximately 10 fold. In addition, in [6], the “Mean Clearance” value was 10.4 L/h. Also, the pKa2 in series [8] was 8.3.

Regarding `CC(C)(O/N=C(\C(=O)N[C@@H]1C(=O)N2C(C(=O)[O-])=C(C[n+]3ccccc3)CS[C@H]12)c1csc(N)n1)C(=O)O` [Ceftazidime, ceftazidime], the values for the MIC in series [1] (Klebsiella pneumoniae) and in series [2] (Enterobacter cloacae) were 64 µg/mL (≈ 117 µM) and 16 µg/mL (≈ 29.3 µM), respectively. Further, the permeability coefficients with E. cloacae complex was 0.1 ×10⁻⁶ cm/s. Also, in series [6], the “Mean Clearance” value is recorded as 9.22 L/h. Further, the Papp is less than 0.3 ×10⁻⁶ cm/s in the series “in vitro [9]” (setting [14]); less than 0.3 ×10⁻⁶ cm/s in “in vitro [9]” (setting [15]); less than 0.3 ×10⁻⁶ cm/s in “in vitro [9]” (setting [16]); less than 0.3 ×10⁻⁶ cm/s in “in vitro [9]” (pH 7, Outer membrane permeability coefficients (nm/s), KP3800, discrete assay, average ± SD, three replicates (Table S2)); less than 0.3 ×10⁻⁶ cm/s in “in vitro [9]” (pH 7, permeability coefficient, KP3800, degradation too slow to be reliably determined in intact bacteria, 'likely').

As for `CO/N=C(\C(=O)N[C@@H]1C(=O)N2C(C(=O)[O-])=C(C[N+]3(C)CCCC3)CS[C@H]12)c1csc(N)n1` [Cefepime, cefepime], the figures for the minimal inhibitory concentration (MIC) in series [1] (Klebsiella pneumoniae) and in series [2] (Enterobacter cloacae) were 128 µg/mL (≈ 266 µM) and 16 µg/mL (≈ 33.3 µM), respectively. Besides, the Papp is less than 0.3 ×10⁻⁶ cm/s in the series “in vitro [9]” (setting [14]), less than 0.3 ×10⁻⁶ cm/s in the series “in vitro [9]” (setting [15]) and 1.36 ± 0.926 ×10⁻⁶ cm/s in the series “in vitro [9]” (setting [16]).

As for `N=C(N)NCCC[C@H](NC(=O)[C@@H](N)Cc1ccccc1)C(=O)Nc1ccc2ccccc2c1` [PAβN, phenylalanine-arginine β-naphthylamide] (H-Phe-Arg-βNA), the “effect of efflux pump inhibitor on OM permeability estimates of the β-lactams” value is given as “did not significantly affect” in [5] (KP3800, PAβN 25 mg/liter, cassette assay) and “did not significantly affect” in [7] (EC3800, PAβN 25 mg/liter, cassette assay).

These data come from PMC7018653 (mBio, 2020).
